Assay results published in patent publication US20090156477A1, “Compositions and Methods for Regulating Inflammatory Responses” (Massachusetts Institute of Technology, priority 2005, published 2009).
“Also recorded” adds a separate entry of the source.

Assays:
Type in all cases: cell-based, human
[1] = tested on: caveolin-1; test: Immunohistochemistry for caveolin-1 in Caco-2 cells; conditions: four hours after administration
Procedure: Caco-2 cells were grown to just prior to confluency on collagen IV coated glass slides. Cells were treated with PBS, FGF1, FGF2 and FGF7, and were incubated at 37° C. in a 5% CO2 humidified incubator for 1 hour, 4 hours, 24 hours or 48 hours, as noted. Cells were washed with PBS, fixed with 3.7% formalin for 10 minutes and washed again with PBS. Cells were treated with 0.1% Triton x-100 for 5 minutes to extract lipids. Cells were washed with PBS and preincubated with PBS supplemented with 1% bovine serum albumin. Primary antibodies were added for 4 hours at room temperature, and cells were washed with PBS. […]
Cells, except those stained with phalloidin, were washed with PBS and stained with diamidino-2-phenylindole (DAPI) for 5 minutes at room temperature (Molecular Probes). […] Cells were examined by confocal microscopy (ZO-1 and phalloidin only), or by fluorescence microscopy. A Nikon HB10101AF fluorescence microscope was used and images were captured at room temperature using a Hitachi HVC20 camera and Scion image acquisition software. […]

[2] = tested on: occludin and ZO-1; test: Immunostaining for occludin and ZO-1 in Caco-2 cells; conditions: 100 ng/ml
Procedure: To determine occludin and ZO-1 expression patterns, cells were plated on transwells as described for TER assays. Media from the basolateral chamber was removed every other day and replaced with new media. Resistances were measured for 10 days, and either 100 ng/ml FGF2, 100 ng/ml FGF7 or 10 μl PBS were added on days 10 and 12. On day 15, media was removed from both the apical and basolateral chambers, and the apical chamber was washed twice with PBS. One ml of 1% (w/v) paraformaldehyde in cacodylate buffer was added to each well, the plates were incubated for 10 minutes at room temperature, and the wells were washed once in PBS. One ml permeabilization media, consisting of 0.2% Triton X-100 and 2% BSA in PBS, was added to each well. After a 10 minute incubation at room temperature, wells were washed three times. 20 μl primary antibodies (rabbit polyclonal anti-human or occludin rabbit polyclonal anti-human ZO-1) diluted 1:20 in 1% goat serum, 0.25% sodium azide in PBS, were added to the apical chamber of three wells per antibody per ligand, and plates were incubated for 1 hour in a humidified chamber. […] Staining was then visualized by fluorescence microscopy. […] A Nikon HB10101AF fluorescence microscope was used to capture images at room temperature using a Hitachi HVC20 camera and Scion image acquisition software. […]

[3] = tested on: TCF/LEF; test: TCF/LEF assay (TOPFLASH luciferase) in Caco-2 cells; conditions: compared to PBS and FGF1
Procedure: Caco-2 cells were seeded in 12 well plates such that they would reach 90% confluency in 4 days. Two days after plating, Caco-2 cells were transiently transfected with the TOPFLASH (contains 4 TCF/LEF binding elements) luciferase promoter construct (Promega, Madison, Wis.) as well as a thymidine kinase driven renilla luciferase construct (Promega, Madison, Wis.) as a transfection control vector. Each well was transfected with 1.5 μg DNA using Superfect transfection reagent (Promega, Madison, Wis.). Twenty-four hours after transfection, Caco-2 cells were treated with PBS, FGF1, FGF2 or FGF7, for 1 hour, 4 hours or 24 hours. The Caco-2 cells were processed using a dual-luciferase assay system to measure luciferase activity from both the TOPFLASH constructs and the renilla constructs. All results were standardized to the relative transfection efficiencies as observed from the renilla values.

[4] = tested on: T84 monolayers; test: Monolayer flux of 3 kDa FITC-dextran, T84; conditions: 100 ng/ml ligand on days 10 and 12, flux measured on day 15, PBS 7.99 ± 0.22
Procedure: Cells were plated on transwells as described. Media from the basolateral chamber was removed every other day and replaced with new media. Resistances were followed for 10 days, and either 100 ng/ml FGF2, 100 ng/ml FGF7 or 10 μl PBS were added on days 10 and 12. On day 15, media was removed from both the apical and basolateral chambers. The basolateral chamber was filled with 1 ml HBSS. FITC conjugated to 3 kDa dextran was added to the apical chamber in a volume of 100 μl, at 1 mg/ml in HBSS. After 30, 60 and 90 minutes, 50 μl was removed from the basolateral chamber and transferred to a 96 well plate, and 50 μl HBSS was added to the basolateral chamber. Subsequently, the flux was determined by measurement of FITC-conjugated dextran that crossed the monolayer by measurement with a fluorimeter, stimulating at 480 nm and measuring emission at 530 nm.

[5] = tested on: occludin and ZO-1; test: Immunostaining for occludin and ZO-1 in T84 cells; conditions: 100 ng/ml
Procedure: To determine occludin and ZO-1 expression patterns, cells were plated on transwells as described for TER assays. Media from the basolateral chamber was removed every other day and replaced with new media. Resistances were measured for 10 days, and either 100 ng/ml FGF2, 100 ng/ml FGF7 or 10 μl PBS were added on days 10 and 12. On day 15, media was removed from both the apical and basolateral chambers, and the apical chamber was washed twice with PBS. One ml of 1% (w/v) paraformaldehyde in cacodylate buffer was added to each well, the plates were incubated for 10 minutes at room temperature, and the wells were washed once in PBS. One ml permeabilization media, consisting of 0.2% Triton X-100 and 2% BSA in PBS, was added to each well. After a 10 minute incubation at room temperature, wells were washed three times. 20 μl primary antibodies (rabbit polyclonal anti-human or occludin rabbit polyclonal anti-human ZO-1) diluted 1:20 in 1% goat serum, 0.25% sodium azide in PBS, were added to the apical chamber of three wells per antibody per ligand, and plates were incubated for 1 hour in a humidified chamber. […] Staining was then visualized by fluorescence microscopy. […] A Nikon HB10101AF fluorescence microscope was used to capture images at room temperature using a Hitachi HVC20 camera and Scion image acquisition software.

Row | Molecule | caveolin-1 localization [1] | membrane ruffling (tight junction protein staining) [2] | TCF/LEF activity [3] | Flux across monolayers (3 kDa-dextran conjugated to FITC; function of emission at 530 nm over time) [4] | membrane ruffling (tight junction protein staining) [5]
1 | FGF1: Recombinant human FGF1 from Amgen | localized surrounding the nucleus | – | – | – | –
2 | FGF2: Recombinant human FGF2, produced as described | – | induced ruffling of cell membranes; also recorded: induced notable membrane ruffling | increased TCF/LEF activity | 37.21 ± 10.25 | induced ruffling of cell membranes
3 | FGF7: Recombinant human FGF7 from Sigma (protein, UniProt P21781 32-194, looked up) Fibroblast growth factor 7: CNDMTPEQMATNVNCSSPERHTRSYDYMEGGDIRVRRLFCRTQWYLRIDKRGKVKGTQEMKNNYNIMEIRTVAVGIVAIKGVESEFYLAMNKEGKLYAKKECNEDCNFKELILENHYNTYASAKWTHNGGEMFVALNQKGIPVRGKKTKKEQKTAHFLPMAIT | – | induced ruffling of cell membranes; also recorded: induced notable membrane ruffling | increased TCF/LEF activity | 33.39 ± 9.24 | induced ruffling of cell membranes
